PubChem BioAssay AID330 (DTP/NCI, 2004)
Values joined by “and” are separate entries in the source; they are usually repeats but may differ in a detail not shown here. Equal entries are not always repeated. Inconclusive results and toxic doses are left out. How the source made its calls: active means survival T/C of 150% or more; inactive means T/C below 125% in these data.

System: P388 leukemia ip, CD2F1 mice, survival T/C
Assay: NCI In Vivo Anticancer Drug Screen. Data for tumor model P388 Leukemia (intraperitoneal) in CD2F1 (CDF1) mice
Conditions: endpoint: median survival time, higher = longer survival
Method in brief: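 Mice carrying the transplanted tumor received test compound or vehicle. Survival was recorded in each group, and the value is the treated-group measurement divided by that of the vehicle-treated control group.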

Measured: T/C

O=C1c2ccccc2C(=O)c2c(NCCNCCO)ccc(NCCNCCO)c21
active: dose: 0.5 mg/kg/injection, schedule: Q01DX009 (ip), vehicle: water 165 % of control | dose: 1.0 mg/kg/injection, schedule: Q01DX009 (ip), vehicle: water 167 % of control | dose: 1.25 mg/kg/injection, schedule: Q01DX009 (ip), vehicle: saline 192 % of control | dose: 1.25 mg/kg/injection, schedule: Q01DX009 (ip), vehicle: water 155 % of control | dose: 2.0 mg/kg/injection, schedule: Q01DX009 (ip), vehicle: saline 199 % of control | dose: 3.13 mg/kg/injection, schedule: Q01DX005 (ip), vehicle: saline 169 % of control | dose: 3.89 mg/kg/injection, schedule: Q01DX009 (ip), vehicle: saline 200 % of control and 261 % of control | dose: 4.0 mg/kg/injection, schedule: Q01DX009 (ip), vehicle: saline 233 % of control | dose: 5.0 mg/kg/injection, schedule: Q01DX005 (ip), vehicle: saline 223 % of control | dose: 6.25 mg/kg/injection, schedule: Q01DX005 (ip), vehicle: saline 205 % of control | dose: 6.25 mg/kg/injection, schedule: Q01DX009 (ip), vehicle: water 156 % of control | dose: 6.48 mg/kg/injection, schedule: Q01DX009 (ip), vehicle: saline 207 % of control and 245 % of control | dose: 7.78 mg/kg/injection, schedule: Q01DX005 (ip), vehicle: saline 261 % of control | dose: 7.78 mg/kg/injection, schedule: Q04DX003 (ip), vehicle: saline 181 % of control | dose: 8.0 mg/kg/injection, schedule: Q04DX003 (ip), vehicle: Klucel (hydroxypropylcellulose) (HPC) 172 % of control | dose: 8.0 mg/kg/injection, schedule: Q04DX003 (ip), vehicle: saline 153 % of control | dose: 10.0 mg/kg/injection, schedule: Q01DX005 (ip), vehicle: saline 258 % of control | dose: 10.0 mg/kg/injection, schedule: Q04DX003 (ip), vehicle: saline 178 % of control | dose: 10.4 mg/kg/injection, schedule: Q04DX003 (ip), vehicle: saline 196 % of control and 208 % of control | dose: 10.8 mg/kg/injection, schedule: Q01DX009 (ip), vehicle: saline 209 % of control | dose: 10.8 mg/kg/injection, schedule: Q01DX009 (sc), vehicle: saline 178 % of control | dose: 12.5 mg/kg/injection, schedule: Q01DX005 (ip), vehicle: saline 241 % of control | dose: 12.5 mg/kg/injection, schedule: Q01DX009 (ip), vehicle: water 187 % of control | dose: 12.5 mg/kg/injection, schedule: Q04DX003 (ip), vehicle: saline 176 % of control | dose: 13.0 mg/kg/injection, schedule: Q01DX005 (iv), vehicle: saline 161 % of control | dose: 13.0 mg/kg/injection, schedule: Q04DX003 (ip), vehicle: saline 156 % of control and 203 % of control | dose: 13.8 mg/kg/injection, schedule: Q04DX003 (ip), vehicle: saline 209 % of control | dose: 16.0 mg/kg/injection, schedule: Q01DX009 (ip), vehicle: saline 177 % of control | dose: 16.0 mg/kg/injection, schedule: Q04DX003 (ip), vehicle: Klucel (hydroxypropylcellulose) (HPC) 175 % of control | dose: 17.3 mg/kg/injection, schedule: Q04DX003 (ip), vehicle: saline 216 % of control and 241 % of control | dose: 18.0 mg/kg/injection, schedule: Q01DX009 (sc), vehicle: saline 205 % of control | dose: 20.0 mg/kg/injection, schedule: Q01DX001 (ip), vehicle: saline 163 % of control | dose: 20.0 mg/kg/injection, schedule: Q01DX005 (iv), vehicle: saline 173 % of control | dose: 21.6 mg/kg/injection, schedule: Q01DX001 (ip), vehicle: saline 178 % of control and 213 % of control | dose: 25.0 mg/kg/injection, schedule: Q01DX005 (iv), vehicle: saline 178 % of control | dose: 25.0 mg/kg/injection, schedule: Q04DX003 (ip), vehicle: Klucel (hydroxypropylcellulose) (HPC) 157 % of control | dose: 25.0 mg/kg/injection, schedule: Q04DX003 (ip), vehicle: saline 246 % of control | dose: 28.8 mg/kg/injection, schedule: Q04DX003 (ip), vehicle: saline 252 % of control | dose: 30.0 mg/kg/injection, schedule: Q01DX009 (sc), vehicle: saline 227 % of control | dose: 32.0 mg/kg/injection, schedule: Q04DX003 (ip), vehicle: saline 166 % of control | dose: 36.0 mg/kg/injection, schedule: Q01DX001 (ip), vehicle: saline 209 % of control and 233 % of control | dose: 40.0 mg/kg/injection, schedule: Q01DX001 (ip), vehicle: saline 197 % of control | dose: 40.0 mg/kg/injection, schedule: Q01DX005 (ip), vehicle: saline 250 % of control | dose: 40.0 mg/kg/injection, schedule: Q04DX003 (ip), vehicle: saline 214 % of control | dose: 50.0 mg/kg/injection, schedule: Q04DX003 (ip), vehicle: Klucel (hydroxypropylcellulose) (HPC) 150 % of control and 174 % of control | dose: 50.0 mg/kg/injection, schedule: Q04DX003 (ip), vehicle: saline 192 % of control | dose: 60.0 mg/kg/injection, schedule: Q01DX001 (ip), vehicle: saline 218 % of control and 224 % of control | dose: 64.0 mg/kg/injection, schedule: Q04DX003 (ip), vehicle: Klucel (hydroxypropylcellulose) (HPC) 163 % of control | dose: 64.0 mg/kg/injection, schedule: Q04DX003 (ip), vehicle: saline 166 % of control and 201 % of control | dose: 80.0 mg/kg/injection, schedule: Q01DX001 (ip), vehicle: saline 241 % of control | dose: 96.0 mg/kg/injection, schedule: Q04DX003 (ip), vehicle: saline 152 % of control and 153 % of control | dose: 100.0 mg/kg/injection, schedule: Q01DX001 (ip), vehicle: saline 210 % of control | dose: 100.0 mg/kg/injection, schedule: Q04DX003 (ip), vehicle: Klucel (hydroxypropylcellulose) (HPC) 176 % of control and 178 % of control | dose: 128.0 mg/kg/injection, schedule: Q04DX003 (ip), vehicle: saline 173 % of control and 186 % of control | dose: 167.0 mg/kg/injection, schedule: Q01DX001 (ip), vehicle: saline 216 % of control | dose: 192.0 mg/kg/injection, schedule: Q04DX003 (ip), vehicle: saline 150 % of control | dose: 200.0 mg/kg/injection, schedule: Q04DX003 (ip), vehicle: Klucel (hydroxypropylcellulose) (HPC) 157 % of control
inactive: dose: 0.1 mg/kg/injection, schedule: Q04DX003 (ip), vehicle: saline 108 % of control | dose: 0.3 mg/kg/injection, schedule: Q04DX003 (ip), vehicle: saline 116 % of control | dose: 0.5 mg/kg/injection, schedule: Q04DX003 (ip), vehicle: saline 118 % of control | dose: 1.0 mg/kg/injection, schedule: Q04DX003 (ip), vehicle: saline 110 % of control and 115 % of control | dose: 2.0 mg/kg/injection, schedule: Q04DX003 (ip), vehicle: saline 117 % of control | dose: 3.13 mg/kg/injection, schedule: Q01DX005 (iv), vehicle: saline 114 % of control | dose: 3.89 mg/kg/injection, schedule: Q01DX009 (sc), vehicle: saline 118 % of control | dose: 4.0 mg/kg/injection, schedule: Q04DX003 (ip), vehicle: saline 117 % of control | dose: 5.0 mg/kg/injection, schedule: Q01DX005 (iv), vehicle: saline 116 % of control | dose: 6.22 mg/kg/injection, schedule: Q04DX003 (iv), vehicle: saline 109 % of control and 118 % of control | dose: 7.78 mg/kg/injection, schedule: Q01DX001 (iv), vehicle: saline 107 % of control and 111 % of control | dose: 10.0 mg/kg/injection, schedule: Q01DX001 (iv), vehicle: saline 107 % of control | dose: 10.0 mg/kg/injection, schedule: Q04DX003 (iv), vehicle: saline 108 % of control | dose: 10.4 mg/kg/injection, schedule: Q04DX003 (iv), vehicle: saline 117 % of control | dose: 13.0 mg/kg/injection, schedule: Q01DX001 (iv), vehicle: saline 111 % of control and 112 % of control | dose: 15.0 mg/kg/injection, schedule: Q01DX009 (ip), vehicle: saline 113 % of control | dose: 20.0 mg/kg/injection, schedule: Q01DX001 (iv), vehicle: saline 115 % of control | dose: 21.6 mg/kg/injection, schedule: Q01DX001 (iv), vehicle: saline 117 % of control | dose: 24.0 mg/kg/injection, schedule: Q04DX003 (ip), vehicle: saline 116 % of control | dose: 25.0 mg/kg/injection, schedule: Q01DX009 (ip), vehicle: water 122 % of control | dose: 32.0 mg/kg/injection, schedule: Q04DX003 (ip), vehicle: Klucel (hydroxypropylcellulose) (HPC) 114 % of control | dose: 36.0 mg/kg/injection, schedule: Q01DX005 (ip), vehicle: saline 121 % of control

Cc1ccc(S(=O)(=O)N/N=C/c2c(Cl)n(C(=O)c3ccccc3F)c3ccccc23)cc1
inactive: dose: 50.0 mg/kg/injection, schedule: Q01DX001 (ip), vehicle: Klucel (hydroxypropylcellulose) (HPC) 93 % of control | dose: 100.0 mg/kg/injection, schedule: Q01DX001 (ip), vehicle: Klucel (hydroxypropylcellulose) (HPC) 95 % of control | dose: 200.0 mg/kg/injection, schedule: Q01DX001 (ip), vehicle: Klucel (hydroxypropylcellulose) (HPC) 90 % of control | dose: 400.0 mg/kg/injection, schedule: Q01DX001 (ip), vehicle: Klucel (hydroxypropylcellulose) (HPC) 86 % of control
